# Measured values reported in patent publication US10253052B2, “HBED-bisphosphonates, radiometal conjugates and their use as theranostic agents” (Five Eleven Pharma Inc., priority 2015, dated 2019).
# Values joined by “and” are separate entries in the source; they are usually repeats but may differ in a detail not shown here. Equal values may be shown once.
# Tests used:
# [1] = In vivo biodistribution in mice; set-up: species or system normal CD-1 male mice; conditions: for bone to blood ratio / bone to muscle ratio / Biodistribution: Blood / Biodistribution: Bone / Biodistribution: Brain / Biodistribution: Heart / Biodistribution: Kidney / Biodistribution: Liver / Biodistribution: Lung / Biodistribution: Muscle / Biodistribution: Pancreas / Biodistribution: Skin / Biodistribution: Spleen: iv
# Method: Biodistribution experiments were performed by intravenously administering ^68Ga labeled 1a-h, 2, 3, BPAMD, and [^18F]NaF into normal, healthy male CD-1 mice (25-30 g). The injection activity was 20-30 μCi/animal. […] Organs of interest were harvested, weighed, and counts of radioactivity were measured by a gamma counter. The biodistribution of each sample was calculated as a percentage of the injected dose per gram of wet tissue weight (% ID/g). Tibia and femur bones were harvested and counted as bone samples.
# [2] = In vitro binding to hydroxyapatite; conditions: 20 mg hydroxyapatite in saline, 10 min at room temperature
# Method: Hydroxyapatite (20 mg, Sigma-Aldrich, reagent grade powder) was incubated in isotonic saline (1 mL) for 24 h. Subsequently, either ^68Ga labeled 1a-h, 2, 3, BPAMD, or [^18F]NaF (1 μCi) was added to the hydroxyapatite suspension. After vortexing for 10 seconds, the suspension was incubated for 10 min at room temperature. The samples were then centrifuged at 10,000 rpm for 3 min and the supernatant was removed. The hydroxyapatite fraction was washed twice with saline (1 mL). Radioactivity in the combined supernatants and the hydroxyapatite fraction was measured using a gamma counter. The proportion of the ^68Ga complex binding to hydroxyapatite was determined as percent of ^68Ga absorbed to hydroxyapatite.
smiles,measurement,setting,value
O=C([O-])CN(CCN(CC(=O)[O-])Cc1cc(CCC(=O)NC(P(=O)(O)O)P(=O)(O)O)ccc1[O-])Cc1cc(CCC(=O)NCCNC(=O)CN2CCN(CC(=O)O)CCN(CC(=O)O)CCN(CC(=O)O)CC2)ccc1[O-].[68Ga+3] [[^68Ga]1h],bone to blood ratio,[1]; 2 min,0.9
same,bone to muscle ratio,[1]; 2 min,4.3
same,Biodistribution: Blood,[1]; 2 min post injection,9.69 ± 1.49 % dose/g
same,Biodistribution: Bone,[1]; 2 min post injection,8.31 ± 0.84 % dose/g
same,Biodistribution: Brain,[1]; 2 min post injection,0.24 ± 0.03 % dose/g
same,Biodistribution: Heart,[1]; 2 min post injection,3.10 ± 0.35 % dose/g
same,Biodistribution: Kidney,[1]; 2 min post injection,18.2 ± 1.65 % dose/g
same,Biodistribution: Liver,[1]; 2 min post injection,1.99 ± 0.29 % dose/g
same,Biodistribution: Lung,[1]; 2 min post injection,4.35 ± 0.52 % dose/g
same,Biodistribution: Muscle,[1]; 2 min post injection,1.92 ± 0.14 % dose/g
same,Biodistribution: Pancreas,[1]; 2 min post injection,1.48 ± 0.27 % dose/g
same,Biodistribution: Skin,[1]; 2 min post injection,2.31 ± 0.25 % dose/g
same,Biodistribution: Spleen,[1]; 2 min post injection,1.91 ± 0.48 % dose/g
same,bone to blood ratio,[1]; 30 min,27
same,bone to muscle ratio,[1]; 30 min,85
same,Biodistribution: Blood,[1]; 30 min (0.5 hr) post injection,0.45 ± 0.07 % dose/g
same,Biodistribution: Bone,[1]; 30 min (0.5 hr) post injection,12.1 ± 0.84 % dose/g
same,Biodistribution: Brain,[1]; 30 min (0.5 hr) post injection,0.02 ± 0.01 % dose/g
same,Biodistribution: Heart,[1]; 30 min (0.5 hr) post injection,0.24 ± 0.12 % dose/g
same,Biodistribution: Kidney,[1]; 30 min (0.5 hr) post injection,2.07 ± 0.62 % dose/g
same,Biodistribution: Liver,[1]; 30 min (0.5 hr) post injection,0.15 ± 0.05 % dose/g
same,Biodistribution: Lung,[1]; 30 min (0.5 hr) post injection,0.31 ± 0.05 % dose/g
same,Biodistribution: Muscle,[1]; 30 min (0.5 hr) post injection,0.14 ± 0.04 % dose/g
same,Biodistribution: Pancreas,[1]; 30 min (0.5 hr) post injection,0.09 ± 0.03 % dose/g
same,Biodistribution: Skin,[1]; 30 min (0.5 hr) post injection,0.39 ± 0.13 % dose/g
same,Biodistribution: Spleen,[1]; 30 min (0.5 hr) post injection,0.13 ± 0.03 % dose/g
same,bone to blood ratio,[1]; 60 min,112
same,bone to muscle ratio,[1]; 60 min,233
same,Biodistribution: Blood,[1]; 60 min (1 hr) post injection,0.11 ± 0.05 % dose/g
same,Biodistribution: Bone,[1]; 60 min (1 hr) post injection,11.9±1.3 % dose/g and 11.9 ± 1.31 % dose/g
same,Biodistribution: Brain,[1]; 60 min (1 hr) post injection,0.01 ± 0.00 % dose/g
same,Biodistribution: Heart,[1]; 60 min (1 hr) post injection,0.08 ± 0.01 % dose/g
same,Biodistribution: Kidney,[1]; 60 min (1 hr) post injection,1.13 ± 0.08 % dose/g
same,Biodistribution: Liver,[1]; 60 min (1 hr) post injection,0.07 ± 0.01 % dose/g
same,Biodistribution: Lung,[1]; 60 min (1 hr) post injection,0.14 ± 0.03 % dose/g
same,Biodistribution: Muscle,[1]; 60 min (1 hr) post injection,0.05 ± 0.01 % dose/g
same,Biodistribution: Pancreas,[1]; 60 min (1 hr) post injection,0.05 ± 0.02 % dose/g
same,Biodistribution: Skin,[1]; 60 min (1 hr) post injection,0.11 ± 0.02 % dose/g
same,Biodistribution: Spleen,[1]; 60 min (1 hr) post injection,0.07 ± 0.01 % dose/g
same,bone to blood ratio,[1]; 120 min,305
same,bone to muscle ratio,[1]; 120 min,383
same,Biodistribution: Blood,[1]; 120 min post injection,0.04 ± 0.01 % dose/g
same,Biodistribution: Bone,[1]; 120 min post injection,12.0 ± 0.82 % dose/g
same,Biodistribution: Brain,[1]; 120 min post injection,0.01 ± 0.01 % dose/g
same,Biodistribution: Heart,[1]; 120 min post injection,0.05 ± 0.01 % dose/g
same,Biodistribution: Kidney,[1]; 120 min post injection,1.67 ± 0.54 % dose/g
same,Biodistribution: Liver,[1]; 120 min post injection,0.09 ± 0.04 % dose/g
same,Biodistribution: Lung,[1]; 120 min post injection,0.10 ± 0.01 % dose/g
same,Biodistribution: Muscle,[1]; 120 min post injection,0.03 ± 0.00 % dose/g
same,Biodistribution: Pancreas,[1]; 120 min post injection,0.04 ± 0.01 % dose/g
same,Biodistribution: Skin,[1]; 120 min post injection,0.07 ± 0.01 % dose/g
same,Biodistribution: Spleen,[1]; 120 min post injection,0.07 ± 0.01 % dose/g
same,"Biodistribution result in words (organ uptake, retention, excretion)",[1]; normal mice after iv injection,excellent bone uptake and fast kidney excretion
same,Hydroxyapatite Binding (%),[2],96.7 ± 0.9%
